The values below come from patent US9644240B2, “Disease susceptibility” (Leiden University, priority 2009, dated 2017).

Broadly, the EC50 is the concentration needed to bring the measured effect to its halfway point. By Kd is commonly meant a measure of binding affinity in units of concentration.

The test system of one assay is four MR haplotypes. Description: Ligand induced transactivation on a TAT-3 promoter in Cos-1 cells, comparison among haplotypes. Conditions: for difference in transactivation responses among the four MR haplotypes: reporter (fluc)/control (rluc) ratios, three experiments pooled. The format is cell-based, human. How it is done: (§1) Cos-1 cells (African green monkey kidney cells) were cultured in DMEM high glucose supplemented with 10% FCS (Gibco, Paisley, UK). Cells were seeded in 24-well plates (Greiner Bio-One, Alphen a/d Rijn, The Netherlands) at 3×10^4 cells/well in DMEM supplemented with charcoal-stripped serum. The cells were transfected the next day using SuperFect (Qiagen, Venlo, The Netherlands). hMR plasmids and the reporter plasmid TAT3-Luc (tyrosine amino transferase triple hormone response element) were used at 100 ng/well. The control plasmid pCMV-R (Promega, Leiden, The Netherlands) coding for Renilla luciferase controlled by cytomegalovirus (CMV) promoter was used (10 ng/well). One day after transfection, the cells were treated with cortisol (Sigma-Aldrich, Zwijndrecht, the Netherlands) in concentrations ranging from 0 to 10^−8 M. After 24 h of incubation the cells were harvested in passive lyses buffer (Promega) and firefly and Renilla luciferase activity was determined using a dual label reporter assay (Promega) and a luminometer (CENTRO XS3 LB960, Berthold, Bad Wildbad, Germany). Three separate experiments were performed and all three experiments were performed in triplicate.
(§2) The in vitro experiments were analyzed using GraphPad prism 4 (GraphPad software Inc, San Diego, Calif.). In the transactivation assays firefly/renilla luciferase ratios were normalized against the highest signal and background expression was subtracted. MR protein expression measured by western blot was normalized against γ-Tubulin. The differences between the four hMR variants were analyzed with one and two-way ANOVAs with Bonferroni posttests. In the radioligand binding assay one-binding-site curve fitting was used to determine the dissociation constant (Kd) and maximal binding (Bmax). The specific MR cortisol binding was obtained by subtracting the non-specific binding from the total binding. The difference in Kd and Bmax between MRI180 and MR180V was tested with a t-test. In vitro results are shown as the mean±SD.

The next assay concerns the target T1, MR Hap 1 (GA) (Homo sapiens, UniProt P08235).
T1 construct: expressed in transfected cells; host or cells: Cos-1 cells (African green monkey kidney)
T1 sequence (P08235 1-984): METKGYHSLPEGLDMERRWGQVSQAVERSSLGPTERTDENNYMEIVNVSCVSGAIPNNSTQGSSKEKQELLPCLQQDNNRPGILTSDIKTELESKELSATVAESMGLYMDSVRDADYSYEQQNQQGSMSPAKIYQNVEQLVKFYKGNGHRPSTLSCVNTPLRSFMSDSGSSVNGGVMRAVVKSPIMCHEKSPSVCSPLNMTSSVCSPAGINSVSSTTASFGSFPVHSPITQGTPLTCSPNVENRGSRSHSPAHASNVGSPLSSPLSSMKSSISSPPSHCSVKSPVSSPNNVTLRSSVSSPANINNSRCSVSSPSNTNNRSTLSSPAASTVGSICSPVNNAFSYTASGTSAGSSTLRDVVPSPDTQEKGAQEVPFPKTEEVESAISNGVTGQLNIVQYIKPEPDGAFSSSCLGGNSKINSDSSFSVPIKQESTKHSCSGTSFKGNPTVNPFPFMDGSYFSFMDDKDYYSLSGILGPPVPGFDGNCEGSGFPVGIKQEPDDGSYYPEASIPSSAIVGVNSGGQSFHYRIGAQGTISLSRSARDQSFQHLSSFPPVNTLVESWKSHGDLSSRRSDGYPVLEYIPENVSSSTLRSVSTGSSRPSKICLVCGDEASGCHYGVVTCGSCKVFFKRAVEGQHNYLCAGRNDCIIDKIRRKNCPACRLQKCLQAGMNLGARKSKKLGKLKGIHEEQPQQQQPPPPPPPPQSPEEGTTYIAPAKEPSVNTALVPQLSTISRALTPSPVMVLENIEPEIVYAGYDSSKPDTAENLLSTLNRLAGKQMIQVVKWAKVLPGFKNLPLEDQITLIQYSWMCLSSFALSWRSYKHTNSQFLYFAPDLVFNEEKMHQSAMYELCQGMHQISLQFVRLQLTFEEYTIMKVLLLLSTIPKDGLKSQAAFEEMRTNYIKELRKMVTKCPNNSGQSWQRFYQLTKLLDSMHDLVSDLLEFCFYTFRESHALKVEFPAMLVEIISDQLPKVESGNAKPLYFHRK
As to the kind of experiment: Cortisol-induced transactivation assay, TAT3-Luc reporter in Cos-1 cells. Conditions: TAT-3 promoter, 24 h, read-out: EC50 of cortisol-induced luciferase transcription. The format is cell-based. How it is done:
as §1
as §2, with “binding.” for “binding. The difference in Kd and Bmax between MRI180 and MR180V was tested with a t-test. In vitro results are shown as the mean±SD.”

The target in the next assay is T2, MR Hap 2 (CA) (Homo sapiens, UniProt P08235).
T2 construct: expressed in transfected cells; host or cells: Cos-1 cells (African green monkey kidney)
T2 sequence (P08235 1-984): T1 sequence (P08235 1-984)
The description is as above. In kind it is cell-based. Particulars: TAT-3 promoter, 24 h, read-out: EC50 of cortisol-induced luciferase transcription. As to the method: as §1
as §2, with “binding.” for “binding. The difference in Kd and Bmax between MRI180 and MR180V was tested with a t-test. In vitro results are shown as the mean±SD.”

The next assay has as its target T3, MR Hap 3 (CG) (Homo sapiens, UniProt P08235).
T3 construct: expressed in transfected cells; host or cells: Cos-1 cells (African green monkey kidney)
T3 sequence (P08235 1-984 V241A): T1 sequence (P08235 1-984) with V241A
Described as above. The format is cell-based. Particulars: TAT-3 promoter, 24 h, read-out: EC50 of cortisol-induced luciferase transcription. As to the method: as §1
as §2, with “binding.” for “binding. The difference in Kd and Bmax between MRI180 and MR180V was tested with a t-test. In vitro results are shown as the mean±SD.”

The next assay has as its target T4, MR Hap 4 (GG) (Homo sapiens, UniProt P08235).
T4 construct: expressed in transfected cells; host or cells: Cos-1 cells (African green monkey kidney)
T4 sequence (P08235 1-984 V241A): T1 sequence (P08235 1-984) with V241A
Described as above. The format is cell-based. Particulars: TAT-3 promoter, 24 h, read-out: EC50 of cortisol-induced luciferase transcription. How it is done: as §1
as §2, with “binding.” for “binding. The difference in Kd and Bmax between MRI180 and MR180V was tested with a t-test. In vitro results are shown as the mean±SD.”

The target in another assay is T5, MR180V (Homo sapiens, UniProt P08235).
T5 construct: expressed in transfected cells; host or cells: Cos-1 cells (African green monkey kidney)
T5 sequence (P08235 1-984): T1 sequence (P08235 1-984)
Description: [3H]Cortisol ligand binding assay, cytosol of transfected Cos-1 cells. Particulars: mean±SD. How it is done: (§3) Cos-1 cells were seeded in 20 cm plates (Greiner Bio-One, Alphen a/d Rijn, The Netherlands) at 2×10^6 cells/plate in DMEM supplemented with 5% charcoal-stripped serum. Cells were transfected the next day using Mirus Transit-COS reagent according to the manufacturer's protocol (Sopachem, Ochten, The Netherlands) and hMR plasmids were used at 30 μg/plate. After 24 hours medium was replaced with serum free DMEM and after another 24 hours cells were pelleted. All further steps are carried out at 0° C. Cells were resuspended in 3.5 ml buffer (5 mM Tris-HCl (pH 7.4), 1 mM EDTA, 1 mM B-Mercaptoethanol, 10 mM Na-Molybdate, 5% glycerol) per plate and 3×15 seconds homogenised using an electric homogenizer (Pro200, Pro scientific, Oxford, Conn., USA). The homogenate was centrifuged (100.000×g, 2° C.) to obtain cytosol.
(§4) 200 μl cytosol was incubated with [^3H]Cortisol (70 Ci/mmol, Amersham, Buckinghamshire, UK) to asses total binding or [^3H]Cortisol and a 500 fold excess of dexamethasone (Sigma-Aldrich, Zwijndrecht, the Netherlands) to asses non-specific binding. [^3H]Cortisol was used at 0.5 nM, 1 nM, 1.5 nM, 2.5 nM, 3.5 nM, 5 nM. After vortexing and 3 hours incubation on ice bound and free [^3H]Cortisol fractions were separated by Sephadex LH-20 as described previously (de Kloet et al., 1975). Fractions containing the receptor bound radioligand were collected, vortexed with 3 ml Ultima Gold scintillation fluid (Perkin Elmer, Waltham, Mass., USA) and radioactivity was measured in a liquid scintillation analyzer (1900CA Packard, Perkin Elmer). Three separate experiments were performed and all three experiments were performed in triplicate.
as §2, with “binding.” for “binding. The difference in Kd and Bmax between MRI180 and MR180V was tested with a t-test. In vitro results are shown as the mean±SD.”

The target of a further assay is T6, MRI180 (Homo sapiens, UniProt P08235).
T6 construct: expressed in transfected cells; host or cells: Cos-1 cells (African green monkey kidney)
T6 sequence (P08235 1-984): T1 sequence (P08235 1-984)
The assay is described as above. Conditions: MRI180, mean±SD. How it is done: as §3, §4
as §2, with “binding.” for “binding. The difference in Kd and Bmax between MRI180 and MR180V was tested with a t-test. In vitro results are shown as the mean±SD.”

The mark [1] stands for this setting: three experiments pooled, read-out: dissociation constant (Kd) of cortisol binding.

Positions count from the first letter of the chain named.

Take `C[C@]12CCC(=O)C=C1CC[C@@H]1[C@@H]2[C@@H](O)C[C@]2(C=O)[C@@H](C(=O)CO)CC[C@@H]12` [Aldosterone]: in the assay on four MR haplotypes, the “difference in transactivation responses among the four MR haplotypes” value was “did not show significantly different responses”.

`C[C@]12CCC(=O)C=C1CC[C@@H]1[C@@H]2[C@@H](O)C[C@@]2(C)[C@H]1CC[C@]2(O)C(=O)CO` [cortisol]: the EC50 on MR Hap 1 (GA) came out at 0.039 nM; on MR Hap 2 (CA), 0.017 nM; at MR Hap 3 (CG) it was 0.019 nM; on MR Hap 4 (GG), 0.073 nM. Besides, the “maximal binding (Bmax) of cortisol” value on MR180V is 7112±371 binding sites/cell; on MRI180, 6539±499 binding sites/cell. The dissociation constant Kd on MR180V (setting [1]) came to 0.93 ± 0.16 nM; on MRI180 (setting [1]), 0.86 ± 0.2 nM. Also, in the assay with four MR haplotypes (Hap 1 (GA) and 4 (GG) compared with Hap 2 (CA) and 3 (CG)), the “maximal luciferase expression (Emax)” value is “significant lower maximal luciferase expression (Emax)”. The “difference in transactivation responses among the four MR haplotypes” value in the assay on four MR haplotypes is given as “significantly different responses”.
